Measured values as given in ChEMBL document CHEMBL1201862, “PubChem BioAssay data set” (2004).
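Each compound was tested at five concentrations against cells in 96-well plates for 48 hours. GI50: concentration for 50% inhibition of growth.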 Activity calls are given as the source filed them. No stated cut-off is given here; in the data, active = GI50 up to about 1.1 µM and inactive = higher.

Legend:
Experiment in all cases: inhibition of tumour cell growth, NCI panel, 48 h
CAKI-1 = system: CAKI-1
UACC-257 = system: UACC-257
U-251 = system: U-251
CCRF-CEM = system: CCRF-CEM
SK-MEL-5 = system: SK-MEL-5
OVCAR-5 = system: OVCAR-5
MDA-MB-435 = system: MDA-MB-435
IGROV-1 = system: IGROV-1
NCI-H23 = system: NCI-H23
K562 = system: K562
HOP-92 = system: HOP-92
SF-295 = system: SF-295
HCT-116 = system: HCT-116
T47D = system: T47D
SK-OV-3 = system: SK-OV-3
RXF 393 = system: RXF 393
NCI/ADR-RES = system: NCI/ADR-RES
HOP-62 = system: HOP-62
HL-60 = system: HL-60

SMILES | GI50 (CAKI-1) | GI50 (UACC-257) | GI50 (U-251) | GI50 (CCRF-CEM) | GI50 (SK-MEL-5) | GI50 (OVCAR-5) | GI50 (MDA-MB-435) | GI50 (IGROV-1) | GI50 (NCI-H23) | GI50 (K562) | GI50 (HOP-92) | GI50 (SF-295) | GI50 (HCT-116) | GI50 (T47D) | GI50 (SK-OV-3) | GI50 (RXF 393) | GI50 (NCI/ADR-RES) | GI50 (HOP-62) | GI50 (HL-60)
N#Cc1c(N2CCN(c3ccc([N+](=O)[O-])cc3)CC2)[n+]([O-])c2ccc(Cl)cc2[n+]1[O-] | 0.489 µM (active) | 2.65 µM (inactive) | 0.738 µM (active) | 0.29 µM (active) | 6.38 µM (inactive) | 3.4 µM (inactive) | 1.8 µM (inactive) | 0.318 µM (active) | 1.71 µM (inactive) | 0.231 µM (active) | 0.161 µM (active) | 1.91 µM (inactive) | 0.427 µM (active) | 0.716 µM (active) | 1.78 µM (inactive) | 1.79 µM (inactive) | 1.07 µM (active) | 0.521 µM (active) | –
COc1ccc(/C=C2\CCCCCC2=O)cc1 | > 100 µM (inactive) | > 100 µM (inactive) | > 100 µM (inactive) | > 100 µM (inactive) | > 100 µM (inactive) | > 100 µM (inactive) | > 100 µM (inactive) | > 100 µM (inactive) | > 100 µM (inactive) | > 100 µM (inactive) | > 100 µM (inactive) | > 100 µM (inactive) | > 100 µM (inactive) | > 100 µM (inactive) | > 100 µM (inactive) | > 100 µM (inactive) | > 100 µM (inactive) | > 100 µM (inactive) | –
Nc1ncnc2c1ncn2CC(OCP(=O)(O)O)Oc1ccccc1 (stereo not given) | > 100 µM (inactive) | > 100 µM (inactive) | > 100 µM (inactive) | > 100 µM (inactive) | > 100 µM (inactive) | > 100 µM (inactive) | > 100 µM (inactive) | – | – | > 100 µM (inactive) | > 100 µM (inactive) | > 100 µM (inactive) | > 100 µM (inactive) | > 100 µM (inactive) | > 100 µM (inactive) | > 100 µM (inactive) | > 100 µM (inactive) | > 100 µM (inactive) | –
C(/Cc1ccc2c(c1)OCO2)=N\N=C1NCCCCN1 | – | > 100 µM (inactive) | 86.3 µM (inactive) | 82.2 µM (inactive) | 25.4 µM (inactive) | 34.7 µM (inactive) | > 100 µM (inactive) | 68.9 µM (inactive) | > 100 µM (inactive) | 41.9 µM (inactive) | 32.8 µM (inactive) | 51.5 µM (inactive) | 64.7 µM (inactive) | 54.5 µM (inactive) | 27.9 µM (inactive) | > 100 µM (inactive) | > 100 µM (inactive) | 55.8 µM (inactive) | > 100 µM (inactive)
O=c1[nH]c(=O)n([C@H]2C[C@H](O)[C@@H](CO)O2)cc1Br [BROXURIDINE] | > 100 µM (inactive) | > 100 µM (inactive) | > 100 µM (inactive) | > 64.4 µM (inactive) | > 100 µM (inactive) | > 100 µM (inactive) | > 100 µM (inactive) | > 59.2 µM (inactive) | > 100 µM (inactive) | > 72.4 µM (inactive) | > 100 µM (inactive) | > 100 µM (inactive) | > 94 µM (inactive) | > 100 µM (inactive) | > 100 µM (inactive) | > 100 µM (inactive) | > 100 µM (inactive) | > 100 µM (inactive) | –
Cc1ccc(S(=O)(=O)c2ccc([N+](=O)[O-])o2)cc1 | 0.597 µM (active) | 1.87 µM (inactive) | 5.48 µM (inactive) | 0.242 µM (active) | 11 µM (inactive) | 2.01 µM (inactive) | 1.81 µM (inactive) | 1.55 µM (inactive) | 3.52 µM (inactive) | 1.23 µM (inactive) | 2.38 µM (inactive) | 19.8 µM (inactive) | 1.64 µM (inactive) | 2.36 µM (inactive) | 18.7 µM (inactive) | 1.62 µM (inactive) | 2.25 µM (inactive) | 17.7 µM (inactive) | –
COc1ccc(C(OC(=O)[C@H](O[Si](C)(C)C(C)(C)C)[C@@H](NC(=O)c2ccccc2)c2ccccc2)c2ccc(OC)cc2)cc1 | > 100 µM (inactive) | > 100 µM (inactive) | > 100 µM (inactive) | > 100 µM (inactive) | 77.1 µM (inactive) | > 100 µM (inactive) | > 100 µM (inactive) | > 100 µM (inactive) | > 100 µM (inactive) | 24.8 µM (inactive) | > 100 µM (inactive) | 3.75 µM (inactive) | > 100 µM (inactive) | > 100 µM (inactive) | – | > 100 µM (inactive) | > 100 µM (inactive) | > 100 µM (inactive) | –
CC(C#N)Nc1ccc(Oc2ccc(C(C)(C)c3ccc(Oc4ccc(NC(C)C#N)cc4)cc3)cc2)cc1 (stereo not given) | > 100 µM (inactive) | 8.85 µM (inactive) | > 100 µM (inactive) | – | 50.6 µM (inactive) | > 100 µM (inactive) | > 100 µM (inactive) | > 100 µM (inactive) | 40.9 µM (inactive) | > 100 µM (inactive) | 31.4 µM (inactive) | > 100 µM (inactive) | 30.7 µM (inactive) | 0.409 µM (active) | > 100 µM (inactive) | > 100 µM (inactive) | > 100 µM (inactive) | – | –
COc1cccc(C2CC(=O)c3cc(N4CCCC4)ccc3N2)c1 (stereo not given) | 0.0561 µM (active) | 0.01 µM (active) | 0.0248 µM (active) | 0.0407 µM (active) | 0.0252 µM (active) | 0.0608 µM (active) | 0.00794 µM (active) | 0.045 µM (active) | 0.0265 µM (active) | 0.0237 µM (active) | 0.348 µM (active) | 0.0358 µM (active) | 0.0251 µM (active) | 56 µM (inactive) | 0.043 µM (active) | 0.0177 µM (active) | 0.0173 µM (active) | 1.75 µM (inactive) | –
N#CC1=C(S)N(C2OC(CO)C(O)C(O)C2O)C(c2ccccc2)=CC1c1cccs1 (stereo not given) | 23.1 µM (inactive) | 21.7 µM (inactive) | 20 µM (inactive) | 22.3 µM (inactive) | 14.1 µM (inactive) | 51.1 µM (inactive) | 20.3 µM (inactive) | 22.6 µM (inactive) | 28.1 µM (inactive) | 31.1 µM (inactive) | 23.3 µM (inactive) | 17.5 µM (inactive) | 26.3 µM (inactive) | 19.2 µM (inactive) | – | 20 µM (inactive) | > 100 µM (inactive) | 22.1 µM (inactive) | 28.9 µM (inactive)
CNC(=O)N(CCC#N)CCN(CCN(C(=O)NC)c1ccccc1)C(=O)NC | > 100 µM (inactive) | > 100 µM (inactive) | > 100 µM (inactive) | > 100 µM (inactive) | > 100 µM (inactive) | > 100 µM (inactive) | > 100 µM (inactive) | > 100 µM (inactive) | > 100 µM (inactive) | > 100 µM (inactive) | > 100 µM (inactive) | > 100 µM (inactive) | > 100 µM (inactive) | > 100 µM (inactive) | > 100 µM (inactive) | > 100 µM (inactive) | > 100 µM (inactive) | > 100 µM (inactive) | –
Cc1ccc2c(c1)-c1c(C#N)c(N)nc(-c3ccc(Cl)cc3)c1CCS2(=O)=O | 5.97 µM (inactive) | 5.24 µM (inactive) | 7.14 µM (inactive) | 1.12 µM (active) | 4.32 µM (inactive) | 49.9 µM (inactive) | 2.52 µM (inactive) | 5.43 µM (inactive) | 7.23 µM (inactive) | 2.8 µM (inactive) | 44.5 µM (inactive) | 4.21 µM (inactive) | 4.45 µM (inactive) | 17.3 µM (inactive) | 8.38 µM (inactive) | – | 4.48 µM (inactive) | 6.12 µM (inactive) | 0.207 µM (active)
C=C1[C@H](OC(=O)C(C)C)[C@@H](OC(C)=O)[C@@H](OC(C)=O)C(C)(C)[C@@H]2O[C@H]2[C@@H](C)C(=O)[C@@]2(OC(C)=O)C[C@@](C)(OC(C)=O)[C@H](OC(C)=O)[C@@H]2[C@H]1OC(C)=O | > 100 µM (inactive) | > 100 µM (inactive) | > 100 µM (inactive) | > 100 µM (inactive) | > 100 µM (inactive) | > 100 µM (inactive) | > 100 µM (inactive) | > 100 µM (inactive) | > 100 µM (inactive) | > 100 µM (inactive) | > 100 µM (inactive) | > 100 µM (inactive) | > 100 µM (inactive) | > 100 µM (inactive) | > 100 µM (inactive) | – | > 100 µM (inactive) | > 100 µM (inactive) | > 100 µM (inactive)
COc1cccc(CCCNC(=O)Cc2ccccc2CO)c1 | > 100 µM (inactive) | > 100 µM (inactive) | > 100 µM (inactive) | > 100 µM (inactive) | > 100 µM (inactive) | > 100 µM (inactive) | > 100 µM (inactive) | > 100 µM (inactive) | > 100 µM (inactive) | > 100 µM (inactive) | > 100 µM (inactive) | > 100 µM (inactive) | > 100 µM (inactive) | 38.1 µM (inactive) | > 100 µM (inactive) | – | > 100 µM (inactive) | > 100 µM (inactive) | > 100 µM (inactive)
CC1(C)CC2C(/C1=N/O)C1(C)CCCC2(C)C1O (stereo not given) | > 100 µM (inactive) | > 100 µM (inactive) | > 100 µM (inactive) | > 100 µM (inactive) | > 100 µM (inactive) | > 100 µM (inactive) | > 100 µM (inactive) | > 100 µM (inactive) | > 100 µM (inactive) | > 100 µM (inactive) | > 100 µM (inactive) | > 100 µM (inactive) | > 100 µM (inactive) | > 100 µM (inactive) | > 100 µM (inactive) | – | > 100 µM (inactive) | > 100 µM (inactive) | > 100 µM (inactive)
